Results taken from ChEMBL document CHEMBL5303573, “Mapping human microbiome drug metabolism by gut bacteria and their genes” (Nature, 2019).

Key:
[1] = The drug is tested on Bifidobacterium ruminantium strain: fecal isolate for biotransformation. The drug concentrations were measured before and after a 12-h incubation by liquid-chromatography-coupled mass spectrometry (LC–MS); conditions: 2 µM
[2] = The drug is tested on Collinsella aerofaciens strain: ATCC25986 for biotransformation. The drug concentrations were measured before and after a 12-h incubation by liquid-chromatography-coupled mass spectrometry (LC–MS); conditions: 2 µM
[3] = The drug is tested on Collinsella intestinalis strain: DSM13280 for biotransformation. The drug concentrations were measured before and after a 12-h incubation by liquid-chromatography-coupled mass spectrometry (LC–MS); conditions: 2 µM
[4] = The drug is tested on Bacteroides cellulosilyticus strain: DSM14838 for biotransformation. The drug concentrations were measured before and after a 12-h incubation by liquid-chromatography-coupled mass spectrometry (LC–MS); conditions: 2 µM
[5] = The drug is tested on Bacteroides coprophilus strain: DSM18228 for biotransformation. The drug concentrations were measured before and after a 12-h incubation by liquid-chromatography-coupled mass spectrometry (LC–MS); conditions: 2 µM
[6] = The drug is tested on Bacteroides fragilis strain: ATCC43859 for biotransformation. The drug concentrations were measured before and after a 12-h incubation by liquid-chromatography-coupled mass spectrometry (LC–MS); conditions: 2 µM
[7] = The drug is tested on Bacteroides pectinophilus strain: ATCC43243 for biotransformation. The drug concentrations were measured before and after a 12-h incubation by liquid-chromatography-coupled mass spectrometry (LC–MS); conditions: 2 µM
[8] = The drug is tested on Bacteroides uniformis strain: ATCC8492 for biotransformation. The drug concentrations were measured before and after a 12-h incubation by liquid-chromatography-coupled mass spectrometry (LC–MS); conditions: 2 µM
[9] = The drug is tested on Bacteroides vulgatus strain: ATCC8482 for biotransformation. The drug concentrations were measured before and after a 12-h incubation by liquid-chromatography-coupled mass spectrometry (LC–MS); conditions: phocaeicola vulgatus, 2 µM
[10] = The drug is tested on Bacteroides sp. WH2 strain: WH2 for biotransformation. The drug concentrations were measured before and after a 12-h incubation by liquid-chromatography-coupled mass spectrometry (LC–MS); conditions: bacteroides sp. wh2, 12 h, 2 µM
[11] = The drug is tested on Bacteroides xylanisolvens strain: DSM18836 for biotransformation. The drug concentrations were measured before and after a 12-h incubation by liquid-chromatography-coupled mass spectrometry (LC–MS); conditions: 2 µM
[12] = The drug is tested on Anaerococcus hydrogenalis strain: DSM7454 for biotransformation. The drug concentrations were measured before and after a 12-h incubation by liquid-chromatography-coupled mass spectrometry (LC–MS); conditions: 2 µM
[13] = The drug is tested on Anaerotruncus colihominis strain: DSM17241 for biotransformation. The drug concentrations were measured before and after a 12-h incubation by liquid-chromatography-coupled mass spectrometry (LC–MS); conditions: 2 µM
[14] = The drug is tested on Blautia luti strain: DSM14534 for biotransformation. The drug concentrations were measured before and after a 12-h incubation by liquid-chromatography-coupled mass spectrometry (LC–MS); format: ADME; set-up: dose 2 uM, timepoint 0 vs 12 hours; conditions: 2 µM
[15] = The drug is tested on Clostridium ramosum strain: DSM1402 for biotransformation. The drug concentrations were measured before and after a 12-h incubation by liquid-chromatography-coupled mass spectrometry (LC–MS); conditions: thomasclavelia ramosa, 2 µM
[16] = The drug is tested on Clostridium scindens strain: ATCC35704 for biotransformation. The drug concentrations were measured before and after a 12-h incubation by liquid-chromatography-coupled mass spectrometry (LC–MS); conditions: 2 µM
[17] = The drug is tested on Clostridium sporogenes strain: ATCC15579 for biotransformation. The drug concentrations were measured before and after a 12-h incubation by liquid-chromatography-coupled mass spectrometry (LC–MS); conditions: 2 µM
[18] = The drug is tested on Clostridium symbiosum strain: ATCC14940 for biotransformation. The drug concentrations were measured before and after a 12-h incubation by liquid-chromatography-coupled mass spectrometry (LC–MS); conditions: 2 µM
[19] = The drug is tested on Coprococcus comes strain: ATCC27758 for biotransformation. The drug concentrations were measured before and after a 12-h incubation by liquid-chromatography-coupled mass spectrometry (LC–MS); format: ADME; set-up: dose 2 uM, timepoint 0 vs 12 hours; conditions: 2 µM
[20] = The drug is tested on Dorea formicigenerans strain: ATCC27755 for biotransformation. The drug concentrations were measured before and after a 12-h incubation by liquid-chromatography-coupled mass spectrometry (LC–MS); conditions: 2 µM
[21] = The drug is tested on Enterococcus faecalis strain: V583 for biotransformation. The drug concentrations were measured before and after a 12-h incubation by liquid-chromatography-coupled mass spectrometry (LC–MS); conditions: 2 µM
[22] = The drug is tested on Eubacterium hallii strain: DSM3353 for biotransformation. The drug concentrations were measured before and after a 12-h incubation by liquid-chromatography-coupled mass spectrometry (LC–MS); conditions: anaerobutyricum hallii, 2 µM
[23] = The drug is tested on Eubacterium rectale strain: ATCC33656 for biotransformation. The drug concentrations were measured before and after a 12-h incubation by liquid-chromatography-coupled mass spectrometry (LC–MS); conditions: agathobacter rectalis, 2 µM
[24] = The drug is tested on Eubacterium ventriosum strain: ATCC27560 for biotransformation. The drug concentrations were measured before and after a 12-h incubation by liquid-chromatography-coupled mass spectrometry (LC–MS); format: ADME; set-up: dose 2 uM, timepoint 0 vs 12 hours; conditions: 2 µM
[25] = The drug is tested on Ruminococcus gnavus strain: ATCC29149 for biotransformation. The drug concentrations were measured before and after a 12-h incubation by liquid-chromatography-coupled mass spectrometry (LC–MS); conditions: mediterraneibacter gnavus, 2 µM
[26] = The drug is tested on Ruminococcus lactaris strain: ATCC29176 for biotransformation. The drug concentrations were measured before and after a 12-h incubation by liquid-chromatography-coupled mass spectrometry (LC–MS); conditions: 2 µM
[27] = The drug is tested on Ruminococcus torques strain: ATCC27756 for biotransformation. The drug concentrations were measured before and after a 12-h incubation by liquid-chromatography-coupled mass spectrometry (LC–MS); format: ADME; set-up: dose 2 uM, timepoint 0 vs 12 hours; conditions: 2 µM
[28] = The drug is tested on Subdoligranulum variabile strain: DSM15176 for biotransformation. The drug concentrations were measured before and after a 12-h incubation by liquid-chromatography-coupled mass spectrometry (LC–MS); conditions: 2 µM
[29] = The drug is tested on Edwardsiella tarda strain: ATCC23685 for biotransformation. The drug concentrations were measured before and after a 12-h incubation by liquid-chromatography-coupled mass spectrometry (LC–MS); conditions: 2 µM
[30] = The drug is tested on Providencia stuartii strain: ATCC25827 for biotransformation. The drug concentrations were measured before and after a 12-h incubation by liquid-chromatography-coupled mass spectrometry (LC–MS); conditions: 2 µM
[31] = bifidobacterium adolescentis, 12 h, 2 µM
Description: The drug is tested on Bifidobacterium adolescentis strain: ATCC 15703 for biotransformation. The drug concentrations were measured before and after a 12-h incubation by liquid-chromatography-coupled mass spectrometry (LC–MS)

[32] = bacteroides eggerthii, 12 h, 2 µM
Description: The drug is tested on Bacteroides eggerthii strain: DSM20697 for biotransformation. The drug concentrations were measured before and after a 12-h incubation by liquid-chromatography-coupled mass spectrometry (LC–MS)

[33] = bacteroides fragilis, 12 h, 2 µM
Description: The drug is tested on Bacteroides fragilis strain: NCTC 9343 for biotransformation. The drug concentrations were measured before and after a 12-h incubation by liquid-chromatography-coupled mass spectrometry (LC–MS)

[34] = bacteroides intestinalis, 12 h, 2 µM
Description: The drug is tested on Bacteroides intestinalis strain: DSM17393 for biotransformation. The drug concentrations were measured before and after a 12-h incubation by liquid-chromatography-coupled mass spectrometry (LC–MS)

[35] = parabacteroides johnsonii, 12 h, 2 µM
Description: The drug is tested on Parabacteroides johnsonii strain: DSM18315 for biotransformation. The drug concentrations were measured before and after a 12-h incubation by liquid-chromatography-coupled mass spectrometry (LC–MS)

[36] = segatella copri, 12 h, 2 µM
Description: The drug is tested on Prevotella copri strain: DSM18205 for biotransformation. The drug concentrations were measured before and after a 12-h incubation by liquid-chromatography-coupled mass spectrometry (LC–MS)

[37] = anaerostipes sp., 12 h, 2 µM
Description: The drug is tested on Anaerostipes sp. strain: fecal isolate for biotransformation. The drug concentrations were measured before and after a 12-h incubation by liquid-chromatography-coupled mass spectrometry (LC–MS)

[38] = victivallis vadensis, 12 h, 2 µM
Description: The drug is tested on Victivallis vadensis strain: ATCC BAA-548 for biotransformation. The drug concentrations were measured before and after a 12-h incubation by liquid-chromatography-coupled mass spectrometry (LC–MS)

[39] = akkermansia muciniphila, 12 h, 2 µM
Description: The drug is tested on Akkermansia muciniphila strain: ATCC BAA-835 for biotransformation. The drug concentrations were measured before and after a 12-h incubation by liquid-chromatography-coupled mass spectrometry (LC–MS)

[40] = The drug is tested on Clostridium asparagiforme strain: DSM15981 for biotransformation. The drug concentrations were measured before and after a 12-h incubation by liquid-chromatography-coupled mass spectrometry (LC–MS); format: ADME; set-up: dose 2 uM, timepoint 0 vs 12 hours; conditions: enterocloster asparagiformis, 2 µM
[41] = The drug is tested on Clostridium hathewayi strain: DSM13479 for biotransformation. The drug concentrations were measured before and after a 12-h incubation by liquid-chromatography-coupled mass spectrometry (LC–MS); conditions: hungatella hathewayi, 2 µM
[42] = The drug is tested on Clostridium spiroforme strain: DSM1552 for biotransformation. The drug concentrations were measured before and after a 12-h incubation by liquid-chromatography-coupled mass spectrometry (LC–MS); conditions: thomasclavelia spiroformis, 2 µM
[43] = enterocloster bolteae, 12 h, 2 µM
[44] = clostridioides difficile, 12 h, 2 µM

Measured: Bacterial Biotransformation

CCOC(=O)[C@H](CCc1ccccc1)N[C@@H](C)C(=O)N1[C@H](C(=O)O)C[C@@H]2CCC[C@@H]21
Compound metabolized: [4] | [6] | [8] | [9] | [11]
not listed: [40] | [41] | [42] | [43] | [44]
Compound NOT metabolized: all other assays above

Br.NC(=O)C(c1ccccc1)(c1ccccc1)[C@@H]1CCN(CCc2ccc3c(c2)CCO3)C1 [DARIFENACIN HYDROBROMIDE]
Compound NOT metabolized: [40] | [41] | [15] | [16] | [42] | [17] | [18] | [43] | [44]
